In PubChem BioAssay (NCI):
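Dose response: 5 concentrations. Exposure: 48 h. Format: 96-well plates. Endpoint: linear interpolation; highest concentration if not reached. GI50 is the concentration that inhibits growth by half. TGI: concentration producing complete growth inhibition.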

How the values were obtained:
Assay in all cases: inhibition of tumour cell growth, NCI panel, 48 h
KM12 colon = test system: KM12 colon
SK-MEL-2 melanoma = test system: SK-MEL-2 melanoma
NCI-H460 lung = test system: NCI-H460 lung
HCT-15 colon = test system: HCT-15 colon
SF-539 CNS = test system: SF-539 CNS
OVCAR-4 ovarian = test system: OVCAR-4 ovarian
TK-10 renal = test system: TK-10 renal
UACC-257 melanoma = test system: UACC-257 melanoma
EKVX NSCLC = test system: EKVX NSCLC
CAKI-1 renal = test system: CAKI-1 renal
SN12C renal = test system: SN12C renal
NCI-H23 lung = test system: NCI-H23 lung
NCI-H522 lung = test system: NCI-H522 lung
HOP-92 NSCLC = test system: HOP-92 NSCLC
SNB-19 CNS = test system: SNB-19 CNS
HCC-2998 colon = test system: HCC-2998 colon
NCI-H226 lung = test system: NCI-H226 lung
OVCAR-5 ovarian = test system: OVCAR-5 ovarian
U251 CNS = test system: U251 CNS
K-562 leukemia = test system: K-562 leukemia
MCF7 breast = test system: MCF7 breast
CCRF-CEM leukemia = test system: CCRF-CEM leukemia
SK-OV-3 ovarian = test system: SK-OV-3 ovarian
A498 renal = test system: A498 renal
SNB-75 CNS = test system: SNB-75 CNS
MALME-3M melanoma = test system: MALME-3M melanoma
ACHN renal = test system: ACHN renal
MDA-MB-435 = test system: MDA-MB-435
SK-MEL-28 melanoma = test system: SK-MEL-28 melanoma
BT-549 breast = test system: BT-549 breast
HT29 colon = test system: HT29 colon
MDA-MB-231 breast = test system: MDA-MB-231 breast
HS 578T breast = test system: HS 578T breast
DU-145 prostate = test system: DU-145 prostate
HOP-62 NSCLC = test system: HOP-62 NSCLC
HCT-116 colon = test system: HCT-116 colon
M14 melanoma = test system: M14 melanoma
NCI/ADR-RES ovarian = test system: NCI/ADR-RES ovarian
SR leukemia = test system: SR leukemia
COLO 205 colon = test system: COLO 205 colon
UACC-62 melanoma = test system: UACC-62 melanoma
SW-620 colon = test system: SW-620 colon
SF-268 CNS = test system: SF-268 CNS
LOX IMVI melanoma = test system: LOX IMVI melanoma
RXF 393 renal = test system: RXF 393 renal
OVCAR-3 ovarian = test system: OVCAR-3 ovarian
PC-3 prostate = test system: PC-3 prostate
786-0 renal = test system: 786-0 renal
OVCAR-8 ovarian = test system: OVCAR-8 ovarian
RPMI-8226 leukemia = test system: RPMI-8226 leukemia
T-47D breast = test system: T-47D breast
IGROV1 ovarian = test system: IGROV1 ovarian
SK-MEL-5 melanoma = test system: SK-MEL-5 melanoma
A549 NSCLC = test system: A549 NSCLC
UO-31 renal = test system: UO-31 renal
SF-295 CNS = test system: SF-295 CNS
MOLT-4 leukemia = test system: MOLT-4 leukemia
HL-60(TB) leukemia = test system: HL-60(TB) leukemia

`COc1cccc(-n2ncc3c(N/N=C/c4cccc(F)c4)ncnc32)c1` was tested, and the GI50 (KM12 colon) was 14.7 µM, the TGI (KM12 colon) was > 25 µM and the GI50 (SK-MEL-2 melanoma) was 12.3 µM. The TGI (SK-MEL-2 melanoma) was > 25 µM, the GI50 (NCI-H460 lung) was 6.05 µM and the TGI (NCI-H460 lung) was 12.8 µM. The GI50 (HCT-15 colon) was 14.9 µM, the TGI (HCT-15 colon) was > 25 µM and the GI50 (SF-539 CNS) was 12.5 µM. The TGI (SF-539 CNS) was > 25 µM, the GI50 (OVCAR-4 ovarian) was 6.28 µM and the TGI (OVCAR-4 ovarian) was 13.5 µM. For the same compound, the GI50 (TK-10 renal) was 6.93 µM, the TGI (TK-10 renal) was 18.9 µM and the GI50 (UACC-257 melanoma) was 16.4 µM. For the same compound, the TGI (UACC-257 melanoma) was > 25 µM, the GI50 (EKVX NSCLC) was 10.2 µM and the TGI (EKVX NSCLC) was > 25 µM. The GI50 (CAKI-1 renal) was 8.59 µM, the TGI (CAKI-1 renal) was 24.6 µM and the GI50 (SN12C renal) was 6.74 µM. For the same compound, the TGI (SN12C renal) was > 19.6 µM, the GI50 (NCI-H23 lung) was 11.3 µM and the TGI (NCI-H23 lung) was > 25 µM. The GI50 (NCI-H522 lung) was > 15.6 µM, the TGI (NCI-H522 lung) was > 25 µM and the GI50 (HOP-92 NSCLC) was 5.59 µM. The TGI (HOP-92 NSCLC) was 14.2 µM, the GI50 (SNB-19 CNS) was 12.3 µM and the TGI (SNB-19 CNS) was > 25 µM. The GI50 (HCC-2998 colon) was 20.3 µM, the TGI (HCC-2998 colon) was > 25 µM and the GI50 (NCI-H226 lung) was 9.16 µM. For the same compound, the TGI (NCI-H226 lung) was 24.5 µM, the GI50 (OVCAR-5 ovarian) was > 23.2 µM and the TGI (OVCAR-5 ovarian) was > 25 µM. The GI50 (U251 CNS) was 4.66 µM, the TGI (U251 CNS) was 9.04 µM and the GI50 (K-562 leukemia) was > 25 µM. For the same compound, the TGI (K-562 leukemia) was > 25 µM, the GI50 (MCF7 breast) was > 14.6 µM and the TGI (MCF7 breast) was > 25 µM. The GI50 (CCRF-CEM leukemia) was > 25 µM, the TGI (CCRF-CEM leukemia) was > 25 µM and the GI50 (SK-OV-3 ovarian) was 4.8 µM. The TGI (SK-OV-3 ovarian) was 9.14 µM, the GI50 (A498 renal) was 5.13 µM and the TGI (A498 renal) was 11.2 µM. The GI50 (SNB-75 CNS) was 5.05 µM, the TGI (SNB-75 CNS) was 12.4 µM and the GI50 (MALME-3M melanoma) was 7.96 µM. The TGI (MALME-3M melanoma) was > 25 µM, the GI50 (ACHN renal) was 7.54 µM and the TGI (ACHN renal) was > 20.3 µM. For the same compound, the GI50 (MDA-MB-435) was 10.1 µM, the TGI (MDA-MB-435) was > 25 µM and the GI50 (SK-MEL-28 melanoma) was 8.64 µM. For the same compound, the TGI (SK-MEL-28 melanoma) was > 25 µM, the GI50 (BT-549 breast) was 19.5 µM and the TGI (BT-549 breast) was > 25 µM. The GI50 (HT29 colon) was 12.9 µM, the TGI (HT29 colon) was > 25 µM and the GI50 (MDA-MB-231 breast) was 5.78 µM. The TGI (MDA-MB-231 breast) was 15.6 µM, the GI50 (HS 578T breast) was 6.02 µM and the TGI (HS 578T breast) was 15.6 µM. For the same compound, the GI50 (DU-145 prostate) was 9.01 µM, the TGI (DU-145 prostate) was > 24.1 µM and the GI50 (HOP-62 NSCLC) was 5.87 µM. The TGI (HOP-62 NSCLC) was 11.4 µM, the GI50 (HCT-116 colon) was 5.76 µM and the TGI (HCT-116 colon) was 11.3 µM. For the same compound, the GI50 (M14 melanoma) was 11.3 µM, the TGI (M14 melanoma) was > 25 µM and the GI50 (NCI/ADR-RES ovarian) was 8.11 µM. For the same compound, the TGI (NCI/ADR-RES ovarian) was > 25 µM, the GI50 (SR leukemia) was 13.6 µM and the TGI (SR leukemia) was > 25 µM. The GI50 (COLO 205 colon) was 8.06 µM, the TGI (COLO 205 colon) was > 22 µM and the GI50 (UACC-62 melanoma) was 11.1 µM. For the same compound, the TGI (UACC-62 melanoma) was > 25 µM, the GI50 (SW-620 colon) was 16.8 µM and the TGI (SW-620 colon) was > 25 µM. The GI50 (SF-268 CNS) was 8.46 µM, the TGI (SF-268 CNS) was > 22 µM and the GI50 (LOX IMVI melanoma) was 9.44 µM. The TGI (LOX IMVI melanoma) was > 25 µM, the GI50 (RXF 393 renal) was 5.57 µM and the TGI (RXF 393 renal) was 12.7 µM. For the same compound, the GI50 (OVCAR-3 ovarian) was 5.42 µM, the TGI (OVCAR-3 ovarian) was 10.1 µM and the GI50 (PC-3 prostate) was 9.86 µM. For the same compound, the TGI (PC-3 prostate) was > 25 µM, the GI50 (786-0 renal) was 7.31 µM and the TGI (786-0 renal) was 20.8 µM. The GI50 (OVCAR-8 ovarian) was 7.16 µM, the TGI (OVCAR-8 ovarian) was 18 µM and the GI50 (RPMI-8226 leukemia) was > 25 µM. The TGI (RPMI-8226 leukemia) was > 25 µM, the GI50 (T-47D breast) was 6.41 µM and the TGI (T-47D breast) was > 19.2 µM. For the same compound, the GI50 (IGROV1 ovarian) was 13.9 µM, the TGI (IGROV1 ovarian) was > 25 µM and the GI50 (SK-MEL-5 melanoma) was 18.8 µM. For the same compound, the TGI (SK-MEL-5 melanoma) was > 25 µM, the GI50 (A549 NSCLC) was 4.94 µM and the TGI (A549 NSCLC) was 10.6 µM. For the same compound, the GI50 (UO-31 renal) was 6.73 µM, the TGI (UO-31 renal) was > 16.4 µM and the GI50 (SF-295 CNS) was 8.19 µM. For the same compound, the TGI (SF-295 CNS) was > 17.6 µM, the GI50 (MOLT-4 leukemia) was > 25 µM and the TGI (MOLT-4 leukemia) was > 25 µM. The GI50 (HL-60(TB) leukemia) was > 25 µM and the TGI (HL-60(TB) leukemia) was > 25 µM.
